≈ marks a conversion by molar mass, not a printed value. Entries after “also recorded” stand apart in the source; their conditions may differ. Where two headings read alike, the source gives them in different places.
Key:
[1] = system: HEI-OC1 cells; assay: HEI-OC1 cell viability with CisPt; type: cell-based; conditions: cellular model of CisPt-induced apoptosis
Method: (§1) To identify off-target activities of LPT99, its selectivity against a panel of receptors (44 G-protein-coupled receptors [GPCR] and 4 non-GPCR), 4 ion channels, and 3 transporters were analyzed. The cell line, HEI-OC1 (house ear institute organ of Corti 1), which expresses several characteristic markers of the organ of Corti sensory cells (Kalinec, et al., Audiol. Neurootol. 2003, 8(4), 177-89), was used to evaluate the efficacy of LPT99 in preventing apoptosis due to […]. Cells were pre-incubated with LPT99, followed by […] for 24 hours.
The effect of LPT99 on proliferation of non-apoptotic cells was studied. A549 cells were cultured in the presence of LPT99 for up to 6 days; the cell number was monitored by flow cytometry, and doubling time was calculated.

[2] = system: C1-GABA-gated channel; assay: off-target selectivity panel; type: binding
Method: as §1
(§2) For 14 of the tested targets-adenosine receptor 3 (A3); cholecystokinin: cholecystokinin receptor 1 (CCK1); melatonin receptor (MT1); neurokinin (NK2 and NK3); opioid (kOP and mOP); serotonin receptors (5HT-1A, 5HT-2A, 5HT-2B and 5HT-7); and vasopressin (ViA; Na+channel site 2 and C1-GABA-gated channel)—the LPT99 affinity was >50%. At 1 μM, the inhibition of 13 of these targets was <50%, indicating a very low affinity with LPT99.

[3] = system: Na+channel site 2; assay: off-target selectivity panel; type: binding
Method: as §1, §2

[4] = molecular target: cholecystokinin receptor 1 (CCK1) (Homo sapiens, UniProt P32238); assay: off-target selectivity panel; type: binding
Method: as §1, §2

[5] = molecular target: melatonin receptor (MT1) (Homo sapiens, UniProt P48039); assay: off-target selectivity panel; type: binding
Method: as §1, §2

[6] = molecular target: neurokinin (NK2) (Homo sapiens, UniProt P21452); assay: off-target selectivity panel; type: binding
Method: as §1, §2

[7] = molecular target: opioid (mOP) (Homo sapiens, UniProt P35372); assay: off-target selectivity panel; type: binding
Method: as §1, §2

[8] = system: panel of receptors (44 GPCR and 4 non-GPCR), 4 ion channels, and 3 transporters; assay: off-target selectivity panel; type: binding; conditions: 10 μM
Method: as §1, §2

[9] = molecular target: serotonin receptor 5HT-1A (Homo sapiens, UniProt P08908); assay: off-target selectivity panel; type: binding
Method: as §1, §2

[10] = molecular target: serotonin receptor 5HT-2B (Homo sapiens, UniProt P41595); assay: off-target selectivity panel; type: binding
Method: as §1, §2

[11] = molecular target: serotonin receptor 5HT-7 (Homo sapiens, UniProt P34969); assay: off-target selectivity panel; type: binding
Method: as §1, §2

[12] = molecular target: vasopressin (ViA) (Homo sapiens, UniProt P37288); assay: off-target selectivity panel; type: binding
Method: as §1, §2

[13] = plasma concentrations after IT administration of LPT99-CD; type: in vivo, rat
Method: In a study conducted in female Wistar rats, plasma concentrations of LPT99 were evaluated at 1 hour and 2, 4, 7, and 14 days after IT administration of a single 50 μL dose of 50, 100, or 200 μM LPT99 formulated in a 5% HPβ-cyclodextrin (“CD”) vehicle (LPT99-CD).

[14] = metabolic profile in hepatic fractions; type: in vitro ADME, human, dog, rabbit, rat, and mouse; conditions: phase I biotransformation pathways
Method: The metabolic profile and stability of LPT99 was characterized in human, dog, rabbit, rat, and mouse microsomal and S9 fractions, and in human cytosolic fractions. LPT99 was extensively metabolized (>90% metabolized after 1 hour) in microsomal and S9 hepatic fractions in all tested species. Up to nine (9) metabolites were formed through phase I biotransformation pathways. The most abundant metabolites were identified as single hydroxylation, double hydroxylation, and demethylation plus double hydroxylation. […] In the rabbit S9 fraction, the quantity of detected metabolites was less than in the human S9 fraction.

[15] = solubility; type: physicochemical
[16] = worst-case human plasma concentration estimate; conditions: assumed maximum clinical dose 200 μg, human plasma volume 2400 mL
Method: These bioavailability values are similar to those described for other drugs formulated in POLOXAMER® gels and administered IT (Honeder, et al., Audiol. Neurootol. 2014, 19(3), 193-202; Wang, et al., Audiol. Neurootol. 2011, 16(4), 233-41; Yang, et al., Sci. Transl. Med. 2016, 8(356), 356ra120). Assuming a maximum clinical dose of 200 μg LPT99 and an average human plasma volume of 2400 mL (for an average 60-kg individual [typical blood plasma volume in males is ˜39 mL/kg of body weight, and in females ˜40 mL/kg]).

Chain of melatonin receptor (MT1) (P48039 whole entry): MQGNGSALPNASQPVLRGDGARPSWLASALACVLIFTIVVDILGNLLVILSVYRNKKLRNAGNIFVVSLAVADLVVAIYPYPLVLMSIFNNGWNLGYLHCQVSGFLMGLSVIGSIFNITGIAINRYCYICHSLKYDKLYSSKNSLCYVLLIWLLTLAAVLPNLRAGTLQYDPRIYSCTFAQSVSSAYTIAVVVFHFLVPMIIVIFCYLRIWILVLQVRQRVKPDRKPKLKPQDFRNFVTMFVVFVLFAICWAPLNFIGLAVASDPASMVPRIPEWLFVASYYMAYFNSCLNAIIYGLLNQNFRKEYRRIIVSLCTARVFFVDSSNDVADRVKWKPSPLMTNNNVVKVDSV
Chain of serotonin receptor 5HT-2B (P41595 whole entry): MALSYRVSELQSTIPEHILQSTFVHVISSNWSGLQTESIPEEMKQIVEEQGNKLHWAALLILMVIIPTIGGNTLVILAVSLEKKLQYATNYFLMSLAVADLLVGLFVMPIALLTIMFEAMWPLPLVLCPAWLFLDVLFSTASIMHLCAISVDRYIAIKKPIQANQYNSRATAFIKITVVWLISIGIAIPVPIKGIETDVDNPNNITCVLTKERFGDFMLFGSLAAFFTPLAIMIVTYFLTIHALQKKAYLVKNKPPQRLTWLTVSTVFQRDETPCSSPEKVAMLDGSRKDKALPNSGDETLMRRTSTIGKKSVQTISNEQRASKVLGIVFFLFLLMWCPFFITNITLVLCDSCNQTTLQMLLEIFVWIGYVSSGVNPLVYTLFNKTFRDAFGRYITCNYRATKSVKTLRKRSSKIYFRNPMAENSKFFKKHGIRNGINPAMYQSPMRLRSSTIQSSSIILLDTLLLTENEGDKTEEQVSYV
Chain of neurokinin (NK2) (P21452 whole entry): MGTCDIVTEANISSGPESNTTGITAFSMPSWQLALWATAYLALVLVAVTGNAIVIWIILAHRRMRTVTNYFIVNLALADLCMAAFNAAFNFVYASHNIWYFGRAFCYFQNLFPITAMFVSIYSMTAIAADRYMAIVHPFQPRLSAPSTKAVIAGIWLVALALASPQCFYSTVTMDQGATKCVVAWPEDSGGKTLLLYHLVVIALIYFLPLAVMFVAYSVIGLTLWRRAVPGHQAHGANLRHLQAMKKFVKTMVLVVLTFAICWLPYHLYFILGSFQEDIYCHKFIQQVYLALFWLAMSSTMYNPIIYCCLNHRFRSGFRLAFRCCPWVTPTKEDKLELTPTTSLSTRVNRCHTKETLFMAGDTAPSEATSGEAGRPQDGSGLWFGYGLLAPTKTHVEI
Chain of serotonin receptor 5HT-7 (P34969 whole entry): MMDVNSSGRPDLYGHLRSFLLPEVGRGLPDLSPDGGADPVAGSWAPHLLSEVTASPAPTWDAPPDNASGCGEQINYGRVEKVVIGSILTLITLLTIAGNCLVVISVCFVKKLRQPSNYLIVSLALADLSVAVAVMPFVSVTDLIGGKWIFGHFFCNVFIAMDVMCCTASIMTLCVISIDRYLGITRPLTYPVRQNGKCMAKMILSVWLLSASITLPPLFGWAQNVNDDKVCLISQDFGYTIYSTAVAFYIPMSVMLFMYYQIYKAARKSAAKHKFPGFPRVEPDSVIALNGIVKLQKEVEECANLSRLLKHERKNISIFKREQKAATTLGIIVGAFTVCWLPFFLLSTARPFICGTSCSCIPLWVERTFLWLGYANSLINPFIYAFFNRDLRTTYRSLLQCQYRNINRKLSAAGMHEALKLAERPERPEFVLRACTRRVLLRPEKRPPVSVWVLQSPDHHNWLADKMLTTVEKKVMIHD
Chain of serotonin receptor 5HT-1A (P08908 whole entry): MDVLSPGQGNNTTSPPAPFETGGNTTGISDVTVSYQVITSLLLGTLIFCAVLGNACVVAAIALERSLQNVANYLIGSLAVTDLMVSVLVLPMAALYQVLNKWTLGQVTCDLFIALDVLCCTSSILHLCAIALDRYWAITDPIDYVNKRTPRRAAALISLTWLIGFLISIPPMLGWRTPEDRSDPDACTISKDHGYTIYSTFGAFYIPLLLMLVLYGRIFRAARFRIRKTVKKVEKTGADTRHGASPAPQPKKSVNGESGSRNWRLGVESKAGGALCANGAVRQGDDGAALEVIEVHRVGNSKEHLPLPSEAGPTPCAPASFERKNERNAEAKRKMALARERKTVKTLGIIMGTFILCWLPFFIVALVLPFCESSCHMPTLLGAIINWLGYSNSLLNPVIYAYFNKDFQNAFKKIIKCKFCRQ
Chain of vasopressin (ViA) (P37288 whole entry): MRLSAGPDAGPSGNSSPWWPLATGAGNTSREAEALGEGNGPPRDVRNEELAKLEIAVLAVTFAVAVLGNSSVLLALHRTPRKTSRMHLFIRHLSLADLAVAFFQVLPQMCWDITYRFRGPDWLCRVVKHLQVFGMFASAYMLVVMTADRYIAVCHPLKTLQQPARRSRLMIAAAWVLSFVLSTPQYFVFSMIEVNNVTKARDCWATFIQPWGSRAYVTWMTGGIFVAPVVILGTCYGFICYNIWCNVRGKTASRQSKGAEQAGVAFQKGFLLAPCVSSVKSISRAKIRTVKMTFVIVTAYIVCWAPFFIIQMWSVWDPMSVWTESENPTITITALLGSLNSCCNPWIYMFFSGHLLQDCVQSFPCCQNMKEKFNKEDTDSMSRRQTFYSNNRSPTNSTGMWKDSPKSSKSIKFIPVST
Chain of opioid (mOP) (P35372 whole entry): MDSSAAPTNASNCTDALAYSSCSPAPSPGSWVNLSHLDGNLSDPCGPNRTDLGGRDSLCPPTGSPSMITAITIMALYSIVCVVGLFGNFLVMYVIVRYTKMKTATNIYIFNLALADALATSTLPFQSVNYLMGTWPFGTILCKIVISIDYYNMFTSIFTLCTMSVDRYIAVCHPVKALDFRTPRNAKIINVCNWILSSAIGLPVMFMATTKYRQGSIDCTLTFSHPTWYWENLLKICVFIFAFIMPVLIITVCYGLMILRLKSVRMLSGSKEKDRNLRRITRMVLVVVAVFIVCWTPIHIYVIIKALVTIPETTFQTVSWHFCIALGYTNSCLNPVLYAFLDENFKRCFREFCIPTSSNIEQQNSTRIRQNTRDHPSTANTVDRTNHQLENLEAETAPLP
Chain of cholecystokinin receptor 1 (CCK1) (P32238 whole entry): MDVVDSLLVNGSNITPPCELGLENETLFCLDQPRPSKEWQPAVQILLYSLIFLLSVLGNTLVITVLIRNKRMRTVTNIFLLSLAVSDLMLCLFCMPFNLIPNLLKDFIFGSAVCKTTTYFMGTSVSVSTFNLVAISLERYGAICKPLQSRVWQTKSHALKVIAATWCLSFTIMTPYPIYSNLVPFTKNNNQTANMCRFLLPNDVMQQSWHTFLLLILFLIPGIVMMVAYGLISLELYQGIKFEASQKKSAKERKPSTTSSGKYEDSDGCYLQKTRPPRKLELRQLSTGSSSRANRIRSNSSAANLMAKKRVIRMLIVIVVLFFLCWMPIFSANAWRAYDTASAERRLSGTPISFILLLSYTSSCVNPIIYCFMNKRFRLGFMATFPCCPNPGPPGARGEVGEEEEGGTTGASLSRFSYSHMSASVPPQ

**Q.** Which “cell viability with CisPt” value [1] does the source give for `COc1ccc2[nH]cc(CCNC(=O)CC3C(=O)N(CCc4ccc(Cl)cc4Cl)CC(=O)N3CCc3cccs3)c2c1` (stereo not shown) [LPT99, 2-(4-(2,4-dichlorophenethyl)-3,6-dioxo-1-(2-(thiophen-2-yl)ethyl)piperazin-2-yl)-N-(2-(5-methoxy-1H-indol-3-yl)ethyl)acetamide] here?
**A.** The value was “improved cell viability; also recorded: increased cellular viability”.

**Q.** What about the “inhibition C1-GABA-gated channel” value ([2]; 1 μM) of the same compound?
**A.** Its value is under 50%.

**Q.** And the “affinity (inhibition) C1-GABA-gated channel” value ([2]; 10 μM)?
**A.** Its value is over 50%.

**Q.** What about the “inhibition Na+channel site 2” value ([3]; 1 μM) of the same compound?
**A.** Its value is under 50%.

**Q.** What about the “affinity (inhibition) Na+channel site 2” value ([3]; 10 μM) of the same compound?
**A.** The value was over 50%.

**Q.** And the inhibition at 1 µM ([4]; 1 μM)?
**A.** The inhibition at 1 µM was under 50%.

**Q.** And the inhibition at 10 µM ([4]; 10 μM, read-out: affinity (inhibition) CCK1)?
**A.** The inhibition at 10 µM was over 50%.

**Q.** What about the inhibition at 0.1 µM ([5]; 0.1 μM) of the same compound?
**A.** The inhibition at 0.1 µM was 6%.

**Q.** What about the inhibition at 1 µM ([5]; 1 μM) of the same compound?
**A.** Its inhibition at 1 µM is 53%.

**Q.** What about the inhibition at 10 µM ([5]; 10 μM, read-out: affinity (inhibition) MT1) of the same compound?
**A.** The inhibition at 10 µM was over 50%.

**Q.** What about the inhibition at 1 µM ([6]; 1 μM) of the same compound?
**A.** The inhibition at 1 µM was under 50%.

**Q.** And the inhibition at 10 µM ([6]; 10 μM, read-out: affinity (inhibition) NK2)?
**A.** Its inhibition at 10 µM is over 50%.

**Q.** And the inhibition at 1 µM ([7]; 1 μM)?
**A.** Its inhibition at 1 µM is under 50%.

**Q.** What about the inhibition at 10 µM ([7]; 10 μM, read-out: affinity (inhibition) mOP) of the same compound?
**A.** Its inhibition at 10 µM is over 50%.

**Q.** What about the “in vitro inhibition, 41 of the tested targets” value [8] of the same compound?
**A.** The value was under 50%.

**Q.** And the inhibition at 1 µM ([9]; 1 μM)?
**A.** Its inhibition at 1 µM is under 50%.

**Q.** And the inhibition at 10 µM ([9]; 10 μM, read-out: affinity (inhibition) 5HT-1A)?
**A.** The inhibition at 10 µM was over 50%.

**Q.** And the inhibition at 1 µM ([10]; 1 μM)?
**A.** The inhibition at 1 µM was under 50%.

**Q.** What about the inhibition at 10 µM ([10]; 10 μM, read-out: affinity (inhibition) 5HT-2B) of the same compound?
**A.** Its inhibition at 10 µM is over 50%.

**Q.** What about the inhibition at 1 µM ([11]; 1 μM) of the same compound?
**A.** Its inhibition at 1 µM is under 50%.

**Q.** And the inhibition at 10 µM ([11]; 10 μM, read-out: affinity (inhibition) 5HT-7)?
**A.** The inhibition at 10 µM was over 50%.

**Q.** What about the inhibition at 1 µM ([12]; 1 μM) of the same compound?
**A.** Its inhibition at 1 µM is under 50%.

**Q.** What about the inhibition at 10 µM ([12]; 10 μM, read-out: affinity (inhibition) ViA) of the same compound?
**A.** The inhibition at 10 µM was over 50%.

**Q.** And the “plasma concentration at quantitation limit (3.2 nM) as share of administered dose” value ([13]; 50 μM dose)?
**A.** Its value is 0.006%.

**Q.** What about the “plasma concentration at quantitation limit (3.2 nM) as share of administered dose” value ([13]; 100 μM dose) of the same compound?
**A.** Its value is 0.003%.

**Q.** What about the “plasma concentration at quantitation limit (3.2 nM) as share of administered dose” value ([13]; 200 μM dose) of the same compound?
**A.** Its value is 0.0016%.

**Q.** What about the “number of metabolites formed” value [14] of the same compound?
**A.** Its value is at most 9.

**Q.** And the “increase in drug solubility” value ([15]; 14.7 wt/wt % vehicle vs aqueous)?
**A.** The value was 332 fold.

**Q.** And the solubility ([15]; aqueous (not further specified), read-out: aqueous solubility)?
**A.** Its solubility is 2.4 µM (≈ 1.51 µg/mL).

**Q.** What about the solubility ([15]; aqueous with cosolvent or surfactant or cyclodextrin, 14.7 wt/wt %, read-out: solubility in 14.7 wt/wt % vehicle) of the same compound?
**A.** The solubility was at least 797 µM.

**Q.** What about the “plasma LPT99 concentration if IT dose were 100% bioavailable” value [16] of the same compound?
**A.** The value was 0.066 µM.

Source: patent publication US10561736B1, “Apoptosis inhibitor formulations for prevention of hearing loss” (Spiral Therapeutics, Inc., priority 2019, dated 2020)
